# Experimental data reported in PubChem BioAssay AID1996.
# Details: buffer; pH 7.4; 200.0 µM
row,SMILES,solubility kinetic [µg/mL]
1,CC(=O)c1c(C)nc(-c2cccc([N+](=O)[O-])c2)n1O,> 39.2
2,Cc1ccc(N2C(=O)C3CCC(C)(C2=O)C3(C)C)cc1 (stereo not given),26.7
3,CC(C)S(=O)(=O)C/C(N)=N/OC(=O)c1cc(Cl)cc(Cl)c1,34.5
4,CNc1nc(N)c([N+](=O)[O-])c(NC2CCCCC2)n1,1.7
5,CC(OC(=O)c1ccc(S(=O)(=O)NCc2ccco2)cc1)C(=O)Nc1ccccc1 (stereo not given),7.4
6,Cc1ccc(NC(=O)C2C3CCC(O3)C2C(=O)O)cc1C (stereo not given),> 43.4
7,COc1ccc(OC)c(N2C(=O)CCCC2=O)c1,24.7
8,Cc1ccccc1C(=O)NCCNC(=O)c1ccco1,> 40.8
9,O=C(COC(=O)C12CC3CC(CC(C3)C1)C2)Nc1nccs1,< 0.3
10,Cc1ccc(S(=O)(=O)c2c[nH]c3ccc(Cl)cc3c2=O)cc1,< 0.7
11,COc1cc(N)c(Cl)cc1C(=O)OCC(=O)Nc1ccc(N2CCOCC2)cc1,4.9
12,O=C(CCCOc1ccc(Cl)cc1Cl)NCc1ccncc1,43.6
13,COc1ccccc1-c1c(C)nn2c(N3CCOCC3)cc(C)nc12,> 50.8
14,COc1ccc(-c2onc(C)c2-c2cscn2)c(O)c1,> 43.2
15,COc1cccc(OC)c1OCCN1CCCC1,32.4
16,O=C(OCc1ccccc1)c1cnc(Cl)c(Cl)c1,2.1
17,CCOc1ccc(/C=N/NC(=O)Cn2ccnc2C)cc1,> 42.9
18,O=C(NC(=S)Nc1ccccc1[N+](=O)[O-])c1ccccc1Cl,1.2
19,CCCCN(C(=O)CSc1ncnc2sccc12)c1c(N)n(Cc2ccccc2)c(=O)[nH]c1=O,3.9
20,CCc1ccc2nc(N(CCN(C)C)C(=O)/C=C/c3cccs3)sc2c1.Cl,< 0.3
21,CCCOC(=O)c1ccc(NC(=O)c2ccccc2[N+](=O)[O-])cc1,11
22,O=C(NCCc1ccccc1)C1COc2ccccc2O1 (stereo not given),> 42.5
23,CN(Cc1ccccc1)C(=O)C1CCN(S(C)(=O)=O)CC1,> 46.6

row,SMILES,solubility kinetic [µg/mL]
1,Cc1ccc2c(c1)N(C(C)C(=O)NCc1ccccn1)C(=O)CO2 (stereo not given),> 48.8
2,CCOC(=O)N1CCN=C1SCc1ccc(C(F)(F)F)cc1,13.6
3,Cc1ccc(C)c(NC(=O)C2CC(O)CN2C(=O)Oc2ccccc2)c1 (stereo not given),45.4
4,COC(=O)c1sc(SC)c(-c2ccon2)c1C,< 0.6
5,CC1=C(C)CC(C(=O)NCc2ccccc2F)C(C(=O)O)C1 (stereo not given),> 45.8
6,CC(C)C(=O)Nc1c(-c2ccccc2F)c(=O)c2ccccc2n1C,49.4
7,NC(=O)C1CCN(C(=O)c2ccc(Oc3cc(Cl)cc(Cl)c3)o2)CC1,55.4
8,CCOc1ccc(Nc2ccnc3cc(Cl)ccc23)cc1,< 0.3
9,Cc1nc2oc3c(=O)[nH]cnc3c2c2c1COC(C)(C)C2,40
10,CC(Cc1c[nH]c2ccccc12)NC(N)=O (stereo not given),> 32.6
11,COc1cccc(NC(=O)CN(C)CC(=O)NCc2ccc(F)cc2)c1,> 53.9
12,CCCC(=O)N(Cc1cc(=O)[nH]c2ccccc12)c1ccc(OC)cc1,> 52.6
13,CCC(=O)c1cc(F)ccc1OCC(=O)Nc1ccc2c(c1)OCCO2,6.2
14,O=C(COC(=O)/C=C/c1cccc(F)c1)NC(=O)NC1CCCC1,4.9
15,O=C(Cc1ccc(Cl)cc1)Nc1ccc2oc(=O)ccc2c1,2.9
16,Cn1c(=O)n(C)c2cc(S(=O)(=O)N3CCCCC3)ccc21,> 46.4
17,O=C(/C=C/c1cccc([N+](=O)[O-])c1)N1CCN(Cc2ccccc2)CC1,50.9
18,COc1ccc(CCNC(=O)C2C3CCC(C3)C2C(=O)O)cc1OC (stereo not given),43.7
19,CC(C(=O)Nc1ccc(C#N)cc1)N(C)Cc1cccs1 (stereo not given),> 44.9
20,CCOC(=O)C1=C(Nc2ccc(Cl)cc2)OCC1=O,> 42.3
21,O=C(NCc1ccc(Cl)cc1)C1CCC(=O)N(C2CC2)C1 (stereo not given),> 46
22,O=C(NCCCNC(=O)c1ccco1)c1ccc(Cl)c(Cl)c1,44.2
23,Cn1c(=O)c2c(nc(N3CCOCC3)n2CCc2ccccc2)n(C)c1=O,53.9

row,SMILES,solubility kinetic [µg/mL]
1,O=C(Nc1ccccc1)Nc1nc2ccccc2s1,< 0.2
2,Fc1ccccc1-c1csc(-c2cccnc2)n1,0.4
3,CC1(C(=O)NC2CCCCC2)CCC(=O)N1Cc1ccc2c(c1)OCO2 (stereo not given),44.4
4,CCC1C(=NO)C(CC)C(c2ccccc2)NC1c1ccccc1 (stereo not given),0.9
5,CCCC1C(=O)N(Cc2ccccc2)C(=O)CC1C (stereo not given),31.1
6,COC(=O)c1c(NC(=O)C(C)C)sc(C(=O)N2CCOCC2)c1C,> 53.2
7,Cc1nc(Cl)c(Cl)n1CCOc1ccccc1,> 40.7
8,CC1CCC2(CC1)NC(=O)N(CC(=O)Nc1cccc(S(=O)(=O)N3CCCCC3)c1)C2=O (stereo not given),2.2
9,Nc1cc[n+](CC(=O)c2ccccc2)cc1.[Br-],> 44
10,Cc1cccc(NC(=O)c2cc(=O)c3ccccc3o2)c1,1.9
11,CC(C)c1ccc(N(C)C(=O)Cc2c(C(=O)O)n(C)c3ccccc23)cc1,> 54.7
12,CCOc1cc(/C=C/c2nc3ccccc3c(=O)[nH]2)ccc1O,32.4
13,C[N+](C)(C)C[C@H](O)CC(=O)O.[Cl-],> 29.6
14,O=c1[nH]c(=S)n(Cc2ccc(F)cc2)c(O)c1C=NCc1ccc2c(c1)OCO2,0.4
15,COCCNC(=S)Nc1ccccn1,> 31.7
16,O=C(N/C(=C/c1ccc(F)cc1)C(=O)N1CCCC1)c1ccccc1,> 50.8
17,CCn1c(NC(=O)c2ccccc2)nc2ccccc21,3
18,COc1ccc(/C=C2/NC(=O)CNC2=O)cc1,> 34.8
19,CC(C)CC(=O)N1CCN(C(=O)c2ccc(F)cc2)CC1,> 43.9
20,O=C(CN1C(=O)NC2(CCCC2)C1=O)Nc1ccc(Cl)cc1F,49.8
21,O=C(CN1CCC(NC(=O)C2CCCCC2)CC1)Nc1cccc(F)c1,18.4
22,COc1ccc(NC(=O)c2coc(C)c2)cc1,31.9
23,CCCCn1c(N)c(N(CCC(C)C)C(=O)COC(=O)c2ccc([N+](=O)[O-])s2)c(=O)[nH]c1=O,25.1

row,SMILES,solubility kinetic [µg/mL]
1,Cn1c(N)c(C(=O)COC(=O)CNC(=O)c2ccc(Cl)cc2Cl)c(=O)n(C)c1=O,10.2
2,O=C(Nc1nc2cc3c(cc2s1)OCO3)c1ccco1,1
3,O=C1Nc2ccccc2C1=Nc1ccc(F)cc1,> 36
4,COc1ccc(CCC(=O)NCc2cn3ccccc3n2)cc1,> 46.4
5,O=[N+]([O-])/C(C(=C(Cl)Cl)N1CCOCC1)=C1\NCCO1,> 46.5
6,Cc1ccccc1NC(=O)C1COc2ccccc2O1 (stereo not given),32.6
7,CCOC(=O)C1CCCN(C(=O)CN2C(=O)c3ccccc3S2(=O)=O)C1 (stereo not given),> 57.1
8,COc1ccc(-c2nc(C=O)cs2)cc1,26.2
9,Cc1occc1C(=O)/C(C#N)=C/c1ccc(O)c(Br)c1,> 49.8
10,COc1ccc(C(CCO)NC(=O)c2cccs2)cc1OC (stereo not given),> 48.2
11,Cc1ccccc1NC(=O)COC(=O)c1cc(C)n(C2CC2)c1C,5.6
12,CN(C)S(=O)(=O)c1ccc(Cl)c(C(=O)OCC(=O)c2ccco2)c1,> 55.8
13,CC(NC(=O)C1CCN(C(=O)c2ccc(F)cc2)CC1)c1ccc(S(N)(=O)=O)cc1 (stereo not given),> 65
14,Cc1ccccc1NC(=O)C[n+]1cc(-c2ccccc2)n2c1CCC2.[Cl-],> 55.2
15,O=C(Nc1ccccc1C(=O)Nc1ccccn1)c1cc(F)c(F)cc1Cl,< 0.3
16,Cn1c(=O)c2c(=O)cc(N)[nH]c2n(C)c1=O,12.1
17,Cc1nccc(-c2cccc(NC(=O)c3ccccc3Cl)c2)n1,35
18,CSc1sc(C(=O)N2CCc3ccccc32)cc1S(=O)(=O)C(C)C,< 0.8
19,CCc1ccc2nc(SCC(=O)NCC3CCCO3)c(C#N)cc2c1 (stereo not given),1.9
20,COC(=O)Cn1c2ccc(Cl)cc2c2nc(C)sc21,35.3
21,COc1ccccc1N1CCN(C(=O)CCc2ccccc2)CC1,> 48.7
22,O=C(Nc1ccccc1Cl)NC1(C(=O)N2CCOCC2)CCCCC1,25.8
23,O=C(OCC(=O)N1CCc2ccccc21)[C@@H]1CC(O)CN1S(=O)(=O)c1ccc(Cl)cc1 (stereo not given in full),50.4

row,SMILES,solubility kinetic [µg/mL]
1,O=C1CSC(c2ccccc2[N+](=O)[O-])N1c1ccc(O)cc1 (stereo not given),> 47.4
2,Cc1cc(=O)oc2cc(OCC(=O)NCC3CCC(C(=O)O)CC3)ccc12 (stereo not given),> 56
3,CCOC(=O)c1cn(CC)c2c(ccc3ccccc32)c1=O,< 0.6
4,COc1ccc(C(=O)NCC(=O)OCC(=O)NCc2ccc3c(c2)OCO3)cc1,> 60.1
5,O=C(c1ccc(F)cc1)C(Cc1ccccc1)N1CCCCC1 (stereo not given),13.1
6,Cc1nc(NC(=O)CCc2ccccc2)sc1C,18.7
7,CCN1CCCC1CNC(=O)C(=O)NC(C)c1ccccc1 (stereo not given),> 45.5
8,O=C(CCC(=O)c1cccs1)NCc1ccncc1,> 41.2
9,CSc1ncc(C(=O)Nc2cccc(Cl)c2)c(C)n1,> 44.1
10,COc1ccc(NCc2ccsc2)cc1,31.4
11,CCc1ccc(CN(C)C(C)C(=O)NCc2ccccc2)cc1 (stereo not given),36.5
12,CN(C)C(=O)C(NC(=O)c1ccccc1)=C(Cl)Cl,42
13,CCOC(=O)COc1nc(-c2ccco2)cc(-c2ccco2)c1C#N,2.8
14,CC(=O)Nc1ccc(S(=O)(=O)NCC(=O)OCC(=O)NCc2ccc3c(c2)OCO3)cc1,> 69.5
15,Cc1nc(C(F)(F)F)ccc1C(=O)Nc1ccccc1F,> 44.7
16,CCc1cccc(NC(=O)C(NC(=O)C2CCCCC2)C(C)C)c1 (stereo not given),0.6
17,Cc1nc(C)c(C(=O)C2=C(O)C(=O)N(CCN(C)C)C2c2ccco2)s1 (stereo not given),> 56.3
18,CCCCN1C(=O)C(=O)N(CC(=O)Nc2ccccc2C(=O)OCC)C1=O,55.1
19,COc1cccc(NC(=O)CN(C)C(=O)c2cccc(S(=O)(=O)N3CC4(C)CC3CC(C)(C)C4)c2)c1 (stereo not given),2
20,Cc1ccccc1C(=O)N1CCN(C(c2ccccc2)c2ccccc2)CC1.Cl,7.8
21,COC(=O)c1cccc(NC(=S)N2CCN(C)CC2)c1,41.9
22,Cc1ccc(OCC(=O)Nc2cc(C)on2)c([N+](=O)[O-])n1,18
23,CCCCc1c(C)nc(N2CCCC2)[nH]c1=O,> 35.3
